Assay results taken from paper PMC9323974, “Palladium(II) Complexes of Substituted Salicylaldehydes: Synthesis, Characterization and Investigation of Their Biological Profile” (Pharmaceuticals, 2022).
Values joined by “and” are separate entries in the source; they are usually repeats but may differ in a detail not shown here. Equal entries are not always repeated. Where two headings read alike, the source gives them in different places.

Key:
HSA [1] = biological target: T1, HSA (Homo sapiens, UniProt P02768); conditions: cited from earlier work
T1 construct: purchased Sigma-Aldrich Co

CT DNA = conditions: cited from earlier work
[2] = cited from earlier work
BSA [3] = biological target: T2, BSA (Bos taurus, UniProt P02769); conditions: cited from earlier work
T2 construct: purchased Sigma-Aldrich Co

HSA [4] = biological target: T1, HSA; conditions: cited from earlier work; remark: listed apart in the source
[5] = cited from earlier work; remark: listed apart in the source
BSA [6] = biological target: T2, BSA; conditions: cited from earlier work; remark: listed apart in the source
EB-DNA adduct (CT DNA) = conditions: cited from earlier work
[7] = cited from earlier work; remark: listed apart in the source
[8] = tested on: Bacillus subtilis ATCC 6633; assay: MIC determination; assay type: cell-based
Description: (§1) S2 Antibacterial activity
(§2) The antimicrobial activity of the compounds was evaluated by determining their respective MIC values towards two Gram–(–) (Escherichia coli NCTC 29212 (E. coli) and Xanthomonas campestris ATCC 1395 (X. campestris)) and two Gram–(+) (Staphylococcus aureus ATCC 6538 (S. aureus) and Bacillus subtilis ATCC 6633 (B. subtilis)) bacterial species. Cultures of these microbial strains were grown on a rich selective agar medium and stored at 4°C. The selective media used were Nutrient Agar or Broth for B. subtilis and S. aureus, Yeast Mold Agar or Broth for X. campestris and Luria Agar or Broth for E. coli. Cells picked from the surface of the stored cultures were used to initiate liquid pre–cultures of the same selective medium at an initial turbidity of roughly 1 McFarland unit. Pre–cultures were incubated for 24 h in a rotary shaking incubator and subsequently they were used to inoculate the test cultures used for the determination of MIC at an initial turbidity of 0.5 McFarland units. The test cultures consisted of Mueller –Hinton broth (Deben Diagnostics Ltd) containing different concentrations of the compounds.
(§3) Different concentrations were achieved as follows: the compounds were freshly dissolved in DMSO to a concentration of 1 mg mL–1 and they were diluted with DMSO, using the method of progressive double dilution. Therefore, working solutions with decreasing concentrations of the compounds under investigation were achieved. The working solutions were subsequently diluted to the final desired concentration by addition to the growth medium at a proportion of 2:98. MIC values were determined as the lowest concentrations of the tested compounds that inhibited visible growth of each respective organism after a 24 h incubation [ S3]. Bacterial growth was determined by measuring the turbidity of appropriately diluted cultures at 600 nm with reference to equally diluted sterile growth medium and the inhibition achieved was calculated by comparing the turbidity of each culture to the average of the turbidity of three non–inhibited cultures. All test cultures were grown in triplicates and for the determination of MIC, growth had to be inhibited in at least two cultures of the triplicate. Incubation temperature at all stages was 37°C except for X. campestris that was cultivated at 28°C [S4].

[9] = tested on: Xanthomonas campestris ATCC 1395; assay: MIC determination; assay type: cell-based; conditions: Xanthomonas campestris, ATCC1395, 24 h, read-out: MIC X. campestris
Description: as §1, §2, §3

[10] = tested on: Escherichia coli NCTC 29212; assay: MIC determination; assay type: cell-based
Description: as §1, §2, §3

[11] = tested on: Staphylococcus aureus ATCC 6538; assay: MIC determination; assay type: cell-based
Description: as §1, §2, §3

DPPH radical scavenging = conditions: compound 0.1 mM
Description: (§4) S1 Antioxidant biological assay
The antioxidant activity of the compounds was evaluated via their ability to scavenge in
vitro free radicals such as DPPH and ABTS and to reduce H2O2. All the experiments were carried
S1.1 Determination of the reducing activity of the stable radical DPPH
To an ethanolic solution of DPPH (0.1 mM) an equal volume solution of the compounds
(0.1 mM) in ethanol was added. Absolute ethanol was also used as control solution. The absorbance
at 517 nm was recorded at room temperature after 30 and 60 min, in order to examine the possible
existence of a potential time–dependence of the DPPH radical scavenging activity [S1]. The DPPH–
scavenging activity of the compounds was expressed as the percentage reduction of the absorbance
values of the initial DPPH solution (DPPH%). NDGA and BHT were used as reference compounds. […]

[12] = Reduction of hydrogen peroxide; conditions: compound 0.1 mM
Description: as §4
(§5) The antioxidant activity of the compounds was evaluated via their ability to scavenge in […]
(§6) vitro free radicals such as DPPH and ABTS and to reduce H2O2. […]
S1.3 Reduction of hydrogen peroxide
The ability of the compounds to reduce hydrogen peroxide (H2O2) was estimated according […]
to the method described in the literature [S2]. The reaction mixture contained 20 μL of each of the […]
tested compounds (0.1 mM) and 5 μL H 2O2 solution (40 mM) in phosphate buffer (50 mM, pH 7.4).
The absorbance was measured at 230 nm after 10 min. The antioxidant activity (reduction of […]

[13] = tested on: S. aureus, B. subtilis, E. coli, X. campestris; assay: MIC stated for all tested bacterial strains; assay type: cell-based; conditions: all tested microbes
Description: as §1, §2, §3

[14] = ABTS radical cation scavenging; conditions: compound 0.1 mM
Description: as §4, §5, §6
S1.2 Assay of radical cation ABTS–scavenging activity
The ABTS assay was performed to determine the activity of the compounds to scavenge the […]
radical cation ABTS. Initially, a water solution of ABTS was prepared (2 mM). ABTS radical cation […]
(ABTS+·) was produced by the reaction of ABTS stock solution with potassium persulfate (0.17 […]
mM) and the mixture was stored in the dark at room temperature for 12–16 h before its use. The […]
ABTS was oxidized incompletely because the stoichiometric reaction ratio of ABTS and potassium […]
persulfate is 1:0.5. The absorbance became maximal and stable only after more than 6 h of reaction […]
although the oxidation of the ABTS started immediately. The radical was stable in this form for […]
more than 2 days when allowed to stand in the dark at room temperature. Afterwards, the ABTS+· […]
solution was diluted in ethanol to an absorbance of 0.70 at 734 nm and 10 μL of diluted compounds or standards (0.1 mM) in DMSO were added. The absorbance was recorded out exactly 1 min after […]
initial mixing [S1]. The ABTS radical scavenging activity was expressed as the percentage inhibition of the absorbance of the initial ABTS solution (ABTS%). […]

T1 sequence (P02768 25-609): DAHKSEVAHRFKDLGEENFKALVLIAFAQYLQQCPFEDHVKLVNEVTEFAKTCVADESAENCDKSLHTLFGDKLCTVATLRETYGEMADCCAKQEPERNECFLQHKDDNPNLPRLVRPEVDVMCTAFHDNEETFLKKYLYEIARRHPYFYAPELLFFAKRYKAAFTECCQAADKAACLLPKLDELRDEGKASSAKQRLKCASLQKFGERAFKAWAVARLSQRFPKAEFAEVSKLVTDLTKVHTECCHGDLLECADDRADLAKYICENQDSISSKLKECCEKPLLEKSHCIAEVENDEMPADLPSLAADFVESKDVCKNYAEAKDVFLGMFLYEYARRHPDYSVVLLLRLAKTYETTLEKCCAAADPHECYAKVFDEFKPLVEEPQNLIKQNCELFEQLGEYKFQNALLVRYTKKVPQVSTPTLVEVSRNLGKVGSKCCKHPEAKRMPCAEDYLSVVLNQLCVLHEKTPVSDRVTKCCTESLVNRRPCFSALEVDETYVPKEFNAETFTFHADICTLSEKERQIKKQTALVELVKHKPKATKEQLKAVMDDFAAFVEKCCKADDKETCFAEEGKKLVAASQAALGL
T2 sequence (P02769 25-607): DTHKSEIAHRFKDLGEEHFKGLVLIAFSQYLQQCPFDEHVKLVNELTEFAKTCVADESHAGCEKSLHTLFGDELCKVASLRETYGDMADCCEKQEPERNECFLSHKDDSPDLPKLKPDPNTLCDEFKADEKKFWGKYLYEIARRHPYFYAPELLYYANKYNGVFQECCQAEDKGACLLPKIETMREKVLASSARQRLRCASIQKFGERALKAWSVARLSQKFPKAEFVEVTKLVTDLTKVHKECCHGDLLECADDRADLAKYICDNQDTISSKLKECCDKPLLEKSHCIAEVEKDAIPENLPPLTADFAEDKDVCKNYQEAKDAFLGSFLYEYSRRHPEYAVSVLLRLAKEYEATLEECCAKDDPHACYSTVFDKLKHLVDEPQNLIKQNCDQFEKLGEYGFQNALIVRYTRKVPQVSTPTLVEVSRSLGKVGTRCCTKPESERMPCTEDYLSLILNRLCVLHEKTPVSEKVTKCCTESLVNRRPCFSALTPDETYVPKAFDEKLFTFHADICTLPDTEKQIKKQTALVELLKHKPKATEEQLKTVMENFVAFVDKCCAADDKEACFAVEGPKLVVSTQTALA

SMILES: O=Cc1cc(Br)cc(Br)c1O [3,5-diBr-saloH, 3,5-dibromo-salicylaldehyde]
- K HSA-binding constant (HSA [1]): 4.04 (±0.30) × 10^5 M^−1
- kq HSA-quenching constant (HSA [1]): 1.72 (±0.06) × 10^13 M^−1 s^−1
- Kb (DNA-binding constant) (CT DNA): 3.71 (±0.14) × 10^5 M^−1
- ABTS% [2]: 16.55 ± 0.31%
- BSA-binding constant K, Marker: Ibuprofen (BSA [3]): 7.11 (±0.29) × 10^5 M^−1
- BSA-binding constant K, No Marker (BSA [3]): 2.97 (±0.16) × 10^6 M^−1
- BSA-binding constant K, Marker: Warfarin (BSA [3]): 2.84 (±0.10) × 10^5 M^−1
- HSA-binding constant K, Marker: Ibuprofen (HSA [4]): 4.56 (±0.37) × 10^4 M^−1
- HSA-binding constant K, No Marker (HSA [4]): 4.04 (±0.30) × 10^5 M^−1
- HSA-binding constant K, Marker: Warfarin (HSA [4]): 1.23 (±0.05) × 10^5 M^−1
- H2O2% [5]: 76.05 ± 1.51%
- K BSA-binding constant (BSA [6]): 2.97 (±0.16) × 10^6 M^−1
- kq BSA-quenching constant (BSA [6]): 3.65 (±0.25) × 10^13 M^−1 s^−1
- KSV (Stern–Volmer constant), EB-DNA (EB-DNA adduct (CT DNA)): 3.95 (±0.10) × 10^4 M^−1
- kq (EB-DNA quenching constant) (EB-DNA adduct (CT DNA)): 1.72 (±0.04) × 10^12 M^−1s^−1
- ΔΙ/Ι0 (%) EB-DNA fluorescence quenching (EB-DNA adduct (CT DNA)): 46.6%
- DPPH% (30 min) [7]: 7.97 ± 0.53%
- DPPH% (60 min) [7]: 10.22 ± 0.30%
- MIC ([8]; Bacillus subtilis, ATCC6633, 24 h, read-out: MIC B. subtilis): 25 µg/mL and 89 µM
- MIC [9]: 25 µg/mL and 89 µM
- MIC ([10]; Escherichia coli, NCTC29212, 24 h, read-out: MIC E. coli): 50 µg/mL and 179 µM
- MIC ([11]; Staphylococcus aureus, ATCC6538, 24 h, read-out: MIC S. aureus): 25 µg/mL and 89 µM

SMILES: O=Cc1cc(Cl)cc(Cl)c1O [3,5-diCl-saloH, 3,5-dichloro-salicylaldehyde]
- K HSA-binding constant (HSA [1]): 6.33 (±0.14) × 10^5 M^−1
- kq HSA-quenching constant (HSA [1]): 7.11 (±0.32) × 10^12 M^−1 s^−1
- Kb (DNA-binding constant) (CT DNA): 5.36 (±0.15) × 10^5 M^−1
- ABTS% [2]: 84.89 ± 0.16%
- BSA-binding constant K, Marker: Ibuprofen (BSA [3]): 1.35 (±0.55) × 10^5 M^−1
- BSA-binding constant K, No Marker (BSA [3]): 1.64 (±0.10) × 10^6 M^−1
- BSA-binding constant K, Marker: Warfarin (BSA [3]): 5.09 (±0.09) × 10^5 M^−1
- HSA-binding constant K, Marker: Ibuprofen (HSA [4]): 1.87 (±0.08) × 10^5 M^−1
- HSA-binding constant K, No Marker (HSA [4]): 6.33 (±0.14) × 10^5 M^−1
- HSA-binding constant K, Marker: Warfarin (HSA [4]): 1.52 (±0.07) × 10^5 M^−1
- H2O2% [5]: 79.92 ± 0.34%
- K BSA-binding constant (BSA [6]): 1.64 (±0.10) × 10^6 M^−1
- kq BSA-quenching constant (BSA [6]): 1.47 (±0.09) × 10^13 M^−1 s^−1
- KSV (Stern–Volmer constant), EB-DNA (EB-DNA adduct (CT DNA)): 3.56 (±0.09) × 10^4 M^−1
- kq (EB-DNA quenching constant) (EB-DNA adduct (CT DNA)): 1.55 (±0.04) × 10^12 M^−1s^−1
- ΔΙ/Ι0 (%) EB-DNA fluorescence quenching (EB-DNA adduct (CT DNA)): 43.2%
- DPPH% (30 min) [7]: 15.68 ± 0.15%
- DPPH% (60 min) [7]: 18.80 ± 0.52%
- MIC ([8]; Bacillus subtilis, ATCC6633, 24 h; read-out: MIC B. subtilis): 50 µg/mL
- MIC ([8]; Bacillus subtilis, ATCC6633; 24 h, value in parentheses; read-out: MIC B. subtilis): 262 µM
- MIC [9]: 50 µg/mL and 262 µM
- MIC ([10]; Escherichia coli, NCTC29212, 24 h; read-out: MIC E. coli): 50 µg/mL
- MIC ([10]; Escherichia coli, NCTC29212; 24 h, value in parentheses; read-out: MIC E. coli): 262 µM
- MIC ([11]; Staphylococcus aureus, ATCC6538, 24 h; read-out: MIC S. aureus): 50 µg/mL
- MIC ([11]; Staphylococcus aureus, ATCC6538; 24 h, value in parentheses; read-out: MIC S. aureus): 262 µM

SMILES: Cc1cc(C(C)(C)C)c(O)c(C(C)(C)C)c1 [BHT, butylated hydroxytoluene, reference compound]
- DPPH% (30 min) (DPPH radical scavenging): 61.30 ± 1.16%
- DPPH% (60 min) (DPPH radical scavenging): 79.78 ± 1.12%

SMILES: CC[n+]1c(-c2ccccc2)c2cc(N)ccc2c2ccc(N)cc21.[Br-] [EB, 3,8-diamino-5-ethyl-6-phenyl-phenanthridinium bromide]
- Kb (DNA-binding constant) (CT DNA; classical intercalator): 1.23 (±0.07) × 10^5 M^−1

SMILES: O=C1O[C@H]([C@@H](O)CO)C(O)=C1O [L-ascorbic acid, reference compound]
- H2O2% [12]: 60.80 ± 0.20%

SMILES: CC(Cc1ccc(O)c(O)c1)C(C)Cc1ccc(O)c(O)c1 (stereo not shown) [NDGA, nordihydroguaiaretic acid, reference compound]
- DPPH% (30 min) (DPPH radical scavenging): 87.08 ± 0.12%
- DPPH% (60 min) (DPPH radical scavenging): 87.47 ± 0.12%

SMILES: CC(=O)[O-].CC(=O)[O-].[Pd+2] [Pd(CH3COO)2]
- MIC [13]: > 200 µg/mL

SMILES: Cc1c(C)c2c(c(C)c1O)CCC(C)(C(=O)O)O2 (stereo not shown) [Trolox, 6-hydroxy-2,5,7,8-tetramethylchromane-2-carboxylic acid, reference compound]
- ABTS% [14]: 98.10 ± 0.48%
